According to patent US12600732B2, “Bifunctional compounds for degrading BTK via ubiquitin proteosome pathway” (NURIX THERAPEUTICS, INC., priority 2019, dated 2026):

What was measured:
ITK = target: T1, ITK (Homo sapiens, UniProt Q08881); assay: ITK levels in MOLT4 and TMD8 cells (FIGS. 10-12); assay type: cell-based; details: for effect on ITK levels in cells: MOLT4 and TMD8 cells, FIGS. 11A and 11B
T1 construct: endogenous in cells; host or cells: MOLT4, TMD8
T1 sequence (Q08881 1-620): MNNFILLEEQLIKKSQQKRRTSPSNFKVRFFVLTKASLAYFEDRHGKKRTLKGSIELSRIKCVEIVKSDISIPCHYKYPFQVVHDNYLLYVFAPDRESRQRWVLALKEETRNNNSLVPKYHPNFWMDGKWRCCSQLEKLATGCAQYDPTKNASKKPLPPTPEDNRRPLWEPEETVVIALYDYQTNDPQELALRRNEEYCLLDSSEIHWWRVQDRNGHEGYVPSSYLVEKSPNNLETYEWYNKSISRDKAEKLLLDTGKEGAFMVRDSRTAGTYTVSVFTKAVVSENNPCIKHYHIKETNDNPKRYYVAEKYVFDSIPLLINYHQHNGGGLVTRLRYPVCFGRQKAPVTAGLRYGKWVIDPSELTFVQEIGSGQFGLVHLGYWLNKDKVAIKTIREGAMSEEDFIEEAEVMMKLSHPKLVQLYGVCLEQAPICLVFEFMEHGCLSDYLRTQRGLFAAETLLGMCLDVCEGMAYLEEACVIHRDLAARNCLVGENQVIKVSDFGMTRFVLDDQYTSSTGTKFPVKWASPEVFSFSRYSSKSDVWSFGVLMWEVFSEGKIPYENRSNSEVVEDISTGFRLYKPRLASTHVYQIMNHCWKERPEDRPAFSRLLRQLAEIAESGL
Description: FIGS. 10A and 10B provide effects of compounds 73, 72, 121, and 44, and control compounds, on neo-substrate and ITK or BTK levels after twenty-four hours in MOLT4 cells (FIG. 10A) and TMD8 cells (FIG. 10B).
FIGS. 11A and 11B provide effects of compounds 44, 72, and 149, and control compounds, on CRBN neo-substrate and ITK levels in MOLT4 cells (FIG. 11A) and TMD8 cells (FIG. 11B).
FIG. 12 provides effects of compounds 130, 149, and 44 on ITK levels and IMiD activity.

TMD8 cells = assay: Cell viability assay (CellTiter-Glo), TMD8 cells; details: for EC50: Homo sapiens, TMD8, 72 h; for EMAX (% viable cells): TMD8 cells, treatment time 72 h
Procedure: Cell viability was determined using CellTiter-Glo 2.0 Luminescent Cell Viability Assay (Promega, G9242), which quantitates the amount of ATP present as a proxy for the number of viable cells in culture. Cells were plated with densities between 2000-4000 cells per well in 96-well plates. […] CellTiter-Glo reagent was added to cells at a dilution of 1:20, and the plate was incubated ten minutes at room temperature prior to reading the luminescence signal using an EnVision plate reader. Controls included cells treated with DMSO and wells that contained no cells, only media. Background luminescence signal was determined by control wells containing no cells, only media, and was then subtracted from all sample wells. Luminescence values were then normalized to DMSO-treated wells and reported at proportion viable cells.
Here, the ability of CTMs to affect viability in BTK-dependent cell lines was assessed.

Aiolos = target: T2, Aiolos (Homo sapiens, UniProt Q96SW2+Q9UKT9); assay: Aiolos degradation in Mantle Cell Lymphoma lines (flow cytometry); assay type: cell-based; details: for DC50: treatment time 24 h; for IMiD activity (degradation of IMiD neo-substrates Ikaros and Aiolos): Mantle Cell Lymphoma lines Mino and Rec-1
T2 construct: endogenous in cells; host or cells: Mino, Rec-1
Description: (§1) Ikaros and Aiolos Degradation in Mantle Cell Lymphoma Lines (Ikaros and Aiolos Flow Cytometry)
(§2) This example evaluates the IMiD activity of CTMs in cellular models of Mantle Cell Lymphoma (MCL). […] These assays are to determine potency of CTMs for degrading IMiD neo-substrates in cellular models of MCL and to generate data to inform efficacy studies in MCL xenografts.

Ikaros = target: T3, Ikaros (Homo sapiens, UniProt Q13422+Q96SW2); assay: Ikaros degradation in Mantle Cell Lymphoma lines (flow cytometry); assay type: cell-based; details: treatment time 24 h
T3 construct: endogenous in cells; host or cells: Mino, Rec-1
Description: as §1, §2

primary human T cells = assay: T cell activation assay, IL-2 secretion (ELISA); assay type: cell-based; details: for IL-2 secretion compared to baseline (anti-CD3/anti-CD28 stimulation alone): primary human T cells
Method in brief: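 Primary human T cells stimulated via TCR with anti-CD3/anti-CD28 in the presence of test compound. IL-2 secretion measured by ELISA; surface CD25 and CD69 by flow cytometry. Values are fold-change versus anti-CD3/anti-CD28 stimulation without compound.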

BTK = BTK (Homo sapiens, UniProt Q06187); assay: BTK degradation in human PBMCs (BTK flow cytometry), primary human B cells; assay type: cell-based; set-up: endogenous in cells; host or cells: human PBMC (B cells) from healthy donors
Procedure: Human peripheral blood mononuclear cells (PBMC) were obtained either: 1) by using Ficoll-Paque™ (GE Healthcare) for separation of peripheral blood hematopoietic cells from buffy coats of healthy human donors; or 2) directly from LeukoPak donations. PBMCs were grown at 37° C. and 5% CO2 in RPMI supplemented with 10% heat-inactivated FBS (Corning Premium Fetal Bovine Serum from Fisher, MT35015CV), 1× Penicillin/Streptomycin, and 2 mM Glutamine.
BTK Degradation in Human PBMCs (BTK Flow Cytometry)
This example evaluates the potency of CTMs in primary human B cells, rather than transformed or immortalized cancer cell lines. Primary cells are believed to be a physiologically relevant model. Thus, this example confirms the potency, kinetics, and level of BTK degradation in these cells in addition to the cell line models. Furthermore, this assay establishes that it is possible to monitor BTK degradation in primary human B cells, which can serve as a clinical biomarker.

[1] = after twenty-four hours, TMD8 and/or MOLT4 cells, FIGS. 10A and 10B
[2] = 1.4 nM, fold-change of response relative to baseline
[3] = 37 nM, fold-change of response relative to baseline
[4] = 333 nM, fold-change of response relative to baseline (stimulation without compound)

T3 sequence (Q13422 whole entry): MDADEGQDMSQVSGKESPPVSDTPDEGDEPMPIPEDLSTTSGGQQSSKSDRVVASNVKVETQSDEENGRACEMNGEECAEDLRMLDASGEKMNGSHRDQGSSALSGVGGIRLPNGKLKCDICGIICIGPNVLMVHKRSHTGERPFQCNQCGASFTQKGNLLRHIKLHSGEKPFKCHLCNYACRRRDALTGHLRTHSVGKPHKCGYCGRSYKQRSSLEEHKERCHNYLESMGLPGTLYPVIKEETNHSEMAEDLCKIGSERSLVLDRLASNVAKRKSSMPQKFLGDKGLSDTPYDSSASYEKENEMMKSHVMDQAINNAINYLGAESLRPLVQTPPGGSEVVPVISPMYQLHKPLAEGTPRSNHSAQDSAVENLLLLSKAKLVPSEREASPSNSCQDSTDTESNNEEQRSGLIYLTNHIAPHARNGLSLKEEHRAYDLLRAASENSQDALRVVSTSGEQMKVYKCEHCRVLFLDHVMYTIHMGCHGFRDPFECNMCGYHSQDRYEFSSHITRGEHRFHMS
T3 sequence (Q96SW2 whole entry): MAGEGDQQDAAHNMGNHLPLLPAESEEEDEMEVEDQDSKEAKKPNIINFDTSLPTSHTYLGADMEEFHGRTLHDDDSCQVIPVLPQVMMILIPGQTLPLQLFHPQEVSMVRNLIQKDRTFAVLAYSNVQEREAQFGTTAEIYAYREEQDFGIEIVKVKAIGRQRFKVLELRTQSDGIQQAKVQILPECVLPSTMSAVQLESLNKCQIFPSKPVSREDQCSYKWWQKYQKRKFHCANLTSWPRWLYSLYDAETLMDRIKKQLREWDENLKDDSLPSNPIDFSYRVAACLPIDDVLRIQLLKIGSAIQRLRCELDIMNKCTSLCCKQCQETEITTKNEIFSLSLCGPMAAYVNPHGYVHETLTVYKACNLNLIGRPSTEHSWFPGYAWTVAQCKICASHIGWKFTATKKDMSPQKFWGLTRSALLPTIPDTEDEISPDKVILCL
T3 sequence (Q16531 whole entry partner): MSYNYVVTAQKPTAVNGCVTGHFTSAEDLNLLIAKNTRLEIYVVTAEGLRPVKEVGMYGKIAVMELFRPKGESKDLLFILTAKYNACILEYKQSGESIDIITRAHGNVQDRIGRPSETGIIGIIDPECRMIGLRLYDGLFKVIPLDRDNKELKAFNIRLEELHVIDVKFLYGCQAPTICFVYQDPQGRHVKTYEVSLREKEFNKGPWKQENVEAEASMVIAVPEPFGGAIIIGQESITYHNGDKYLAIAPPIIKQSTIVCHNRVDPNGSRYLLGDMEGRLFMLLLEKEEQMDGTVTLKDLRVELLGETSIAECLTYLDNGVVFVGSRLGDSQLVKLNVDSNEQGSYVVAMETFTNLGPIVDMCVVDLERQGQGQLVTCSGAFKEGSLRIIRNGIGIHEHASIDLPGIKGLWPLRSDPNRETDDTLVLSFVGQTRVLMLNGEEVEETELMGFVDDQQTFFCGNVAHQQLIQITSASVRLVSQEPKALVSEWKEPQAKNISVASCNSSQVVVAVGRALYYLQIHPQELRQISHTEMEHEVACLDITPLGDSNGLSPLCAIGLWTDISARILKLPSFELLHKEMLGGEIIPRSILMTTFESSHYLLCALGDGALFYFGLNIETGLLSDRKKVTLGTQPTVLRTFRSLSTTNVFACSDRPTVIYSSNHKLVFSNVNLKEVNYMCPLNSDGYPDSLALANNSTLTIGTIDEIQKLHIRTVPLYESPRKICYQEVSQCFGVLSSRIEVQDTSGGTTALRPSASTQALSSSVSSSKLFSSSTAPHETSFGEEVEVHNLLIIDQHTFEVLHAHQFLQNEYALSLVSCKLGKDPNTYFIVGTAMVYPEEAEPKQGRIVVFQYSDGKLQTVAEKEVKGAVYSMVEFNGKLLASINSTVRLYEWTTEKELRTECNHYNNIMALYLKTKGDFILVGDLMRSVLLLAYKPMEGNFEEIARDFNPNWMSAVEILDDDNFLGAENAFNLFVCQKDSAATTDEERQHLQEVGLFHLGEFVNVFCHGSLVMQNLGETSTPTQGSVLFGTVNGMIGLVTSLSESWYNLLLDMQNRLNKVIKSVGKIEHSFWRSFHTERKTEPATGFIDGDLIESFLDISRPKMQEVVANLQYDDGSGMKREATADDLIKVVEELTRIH
T2 sequence (Q9UKT9 whole entry): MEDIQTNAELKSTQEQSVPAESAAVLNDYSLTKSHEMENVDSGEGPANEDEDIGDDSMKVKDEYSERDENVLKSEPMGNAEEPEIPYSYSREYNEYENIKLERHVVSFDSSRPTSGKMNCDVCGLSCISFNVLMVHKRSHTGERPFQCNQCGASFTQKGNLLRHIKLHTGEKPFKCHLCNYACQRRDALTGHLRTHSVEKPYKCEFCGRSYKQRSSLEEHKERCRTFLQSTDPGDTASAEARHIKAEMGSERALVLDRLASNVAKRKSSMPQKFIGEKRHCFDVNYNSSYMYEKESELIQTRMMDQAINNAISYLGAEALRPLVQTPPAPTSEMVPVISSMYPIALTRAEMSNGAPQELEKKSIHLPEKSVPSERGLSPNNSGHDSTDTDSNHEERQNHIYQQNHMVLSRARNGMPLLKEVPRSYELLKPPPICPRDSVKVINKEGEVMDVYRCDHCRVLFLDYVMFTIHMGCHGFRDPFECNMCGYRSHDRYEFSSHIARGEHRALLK
T2 sequence (Q96SW2 whole entry): as the sequence (Q96SW2 whole entry) above
T2 sequence (Q16531 whole entry partner): as the sequence (Q16531 whole entry partner) above
Sequence of BTK (Q06187 whole entry): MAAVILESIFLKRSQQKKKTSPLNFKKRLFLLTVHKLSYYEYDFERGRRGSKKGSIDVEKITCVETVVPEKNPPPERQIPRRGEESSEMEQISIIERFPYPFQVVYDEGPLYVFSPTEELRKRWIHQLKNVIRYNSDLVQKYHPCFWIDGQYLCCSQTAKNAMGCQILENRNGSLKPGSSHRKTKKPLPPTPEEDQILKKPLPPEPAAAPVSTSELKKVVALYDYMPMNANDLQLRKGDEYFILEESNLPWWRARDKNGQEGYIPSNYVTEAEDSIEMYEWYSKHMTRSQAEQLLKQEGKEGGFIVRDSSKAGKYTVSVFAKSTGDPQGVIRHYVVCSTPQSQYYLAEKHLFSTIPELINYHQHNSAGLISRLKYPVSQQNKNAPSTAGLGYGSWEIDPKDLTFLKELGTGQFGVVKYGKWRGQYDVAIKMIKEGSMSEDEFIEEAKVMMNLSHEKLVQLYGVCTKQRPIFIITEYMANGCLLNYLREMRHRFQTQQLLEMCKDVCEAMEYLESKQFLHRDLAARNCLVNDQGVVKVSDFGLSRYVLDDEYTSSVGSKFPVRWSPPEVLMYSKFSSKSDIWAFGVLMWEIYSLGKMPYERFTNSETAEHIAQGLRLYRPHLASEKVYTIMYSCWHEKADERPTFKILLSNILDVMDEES

Compound | effects on ITK levels (ITK; FIG. 12) | effects on ITK levels (ITK; [1]) | DC50 (Aiolos; Mino cells) [nM] | DC50 (Aiolos; Rec-1 cells) [nM] | DC50 (Ikaros; Mino cells) [nM] | DC50 (Ikaros; Rec-1 cells) [nM] | DC50 (BTK; treatment time 1 h) [nM] | DC50 (BTK; treatment time 2 h) [nM] | DC50 (BTK; treatment time 4 h) [nM] | EC50 (TMD8 cells) [nM] | EMAX (% viable cells) (TMD8 cells) [%] | IL-2 Secretion Anti-CD3/Anti-CD28 Stimulation (primary human T cells; [2]) | IL-2 Secretion Anti-CD3/Anti-CD28 Stimulation (primary human T cells; [3]) | IL-2 Secretion Anti-CD3/Anti-CD28 Stimulation (primary human T cells; [4]) | IL-2 secretion compared to baseline (anti-CD3/anti-CD28 stimulation alone) (primary human T cells) | effect on ITK levels in cells (ITK) | IMiD activity (degradation of IMiD neo-substrates Ikaros and Aiolos) (Aiolos)
CN1CCN([C@H]2CCCN(c3cnc(C(N)=O)c(Nc4ccc(C5CCN(CC6CCN(c7ccc(C(=O)NC8CCC(=O)NC8=O)nc7)CC6)CC5)cc4)n3)C2)C1=O (some centres unmarked) [Compound 130] | slight effects | – | > 2000 | > 2000 | > 2000 | > 2000 | – | – | 0.13 | 1.5 | 27 | 1.19 | 1.42 | 2.02 | – | – | not others
NC(=O)c1ncc(N2CCCCC2)nc1Nc1ccc(C2CCN(C[C@@H]3CCN(c4ccc5c(c4)C(=O)N(C4CCC(=O)NC4=O)C5=O)C3)CC2)cc1 (some centres unmarked) [Compound 149] | – | – | 87 | 81 | 130 | 61 | – | – | 1.9 | 9.62 | 7 | 1.86 | 3.63 | 4.24 | increased IL-2 secretion but not to the level observed with IMiDs | some effect | demonstrate IMiD activity

Second part, led by results:

effects on ITK levels (ITK; FIG. 12) | effects on ITK levels (ITK; [1]) | DC50 (Aiolos; Mino cells) [nM] | DC50 (Aiolos; Rec-1 cells) [nM] | DC50 (Ikaros; Mino cells) [nM] | DC50 (Ikaros; Rec-1 cells) [nM] | DC50 (BTK; treatment time 1 h) [nM] | DC50 (BTK; treatment time 2 h) [nM] | DC50 (BTK; treatment time 4 h) [nM] | Compound | EC50 (TMD8 cells) [nM] | EMAX (% viable cells) (TMD8 cells) [%] | IL-2 Secretion Anti-CD3/Anti-CD28 Stimulation (primary human T cells; [2]) | IL-2 Secretion Anti-CD3/Anti-CD28 Stimulation (primary human T cells; [3]) | IL-2 Secretion Anti-CD3/Anti-CD28 Stimulation (primary human T cells; [4]) | IL-2 secretion compared to baseline (anti-CD3/anti-CD28 stimulation alone) (primary human T cells) | effect on ITK levels in cells (ITK) | IMiD activity (degradation of IMiD neo-substrates Ikaros and Aiolos) (Aiolos)
slight effects | does affect | – | – | – | – | – | – | – | CN1CCN([C@@H]2CCCN(c3cnc(C(N)=O)c(Nc4ccc(C5CCN(CC6CCN(c7ccc8c(=O)n(C9CCC(=O)NC9=O)ccc8c7)CC6)CC5)cc4)n3)C2)C1=O (some centres unmarked) [Compound 72] | 0.429 | 26 | – | – | – | – | – | –
– | some effects | 100 | 70 | 1400 | 72 | 6 | 3 | 0.51 | CN1CCN([C@@H]2CCCN(c3cnc(C(N)=O)c(Nc4ccc(C5CCN(C[C@H]6CCN(c7ccc8c(c7)C(=O)N(C7CCC(=O)NC7=O)C8=O)C6)CC5)cc4)n3)C2)C1=O (some centres unmarked) [Compound 44] | 3.73 | 15 | 1.43 | 3.49 | 3.75 | increased IL-2 secretion but not to the level observed with IMiDs | some effect | –
– | minimal effects | – | – | – | – | – | – | – | CN1CCN([C@@H]2CCCN(c3cnc(C(N)=O)c(Nc4ccc(C5CCN(CC6CCN(c7ccc(-c8nn(C9CCC(=O)NC9=O)c(=O)n8C)cc7)CC6)CC5)cc4)n3)C2)C1=O (some centres unmarked) [Compound 121] | 1.54 | 28 | – | – | – | – | – | –
